One test deals with Vero. The test can be described thus: Cytotoxicity against african green monkey Vero cells after 72 hrs by MTT assay. The test is classed as cell-based. Conditions: Chlorocebus sabaeus.
Test [1] deals with Mycobacterium tuberculosis. Put plainly: Antitubercular activity against Mycobacterium tuberculosis H37Rv by BacTiter-Gl Microbial Cell Viability assay. The test is classed as functional, organism-based.
The subject of test [2] is Mycobacterium tuberculosis. The test can be described thus: Antitubercular activity against Mycobacterium tuberculosis H37Rv by microdilution alamar Blue broth assay. The test is classed as functional, organism-based.
Test [3] concerns Mycobacterium tuberculosis. Put plainly: Ratio of pyrimethamine MIC to compound MIC for Mycobacterium tuberculosis H37Rv by BacTiter-Gl Microbial Cell Viability assay. The test is classed as functional.
Test [4] concerns Mycobacterium tuberculosis. The test can be described thus: Ratio of pyrimethamine EC90 to compound EC90 for Mycobacterium tuberculosis H37Rv by BacTiter-Gl Microbial Cell Viability assay. The test is classed as functional.
The subject of test [5] is Mycobacterium tuberculosis. The test can be described thus: Ratio of pyrimethamine EC50 to compound EC50 for Mycobacterium tuberculosis H37Rv by BacTiter-Gl Microbial Cell Viability assay. The test is classed as functional.
Test [6] relates to Mycobacterium tuberculosis. Put plainly: Ratio of cycloserine MIC to compound MIC for Mycobacterium tuberculosis H37Rv by BacTiter-Gl Microbial Cell Viability assay. The test is classed as functional.
For test [7], the system named is Mycobacterium tuberculosis. The test can be described thus: Ratio of cycloserine EC90 to compound EC90 for Mycobacterium tuberculosis H37Rv by BacTiter-Gl Microbial Cell Viability assay. The test is classed as functional.
For test [8], the system named is Mycobacterium tuberculosis. The test can be described thus: Ratio of cycloserine EC50 to compound EC50 for Mycobacterium tuberculosis H37Rv by BacTiter-Gl Microbial Cell Viability assay. The test is classed as functional.

In brackets after ≈: the same amount, converted by molar mass.

`CN1C[C@H](c2ccc(C(F)(F)F)cc2)[C@]2(Cc3ccccc3C2=O)[C@]12C(=O)c1cccc3cccc2c13`: the IC50 with Vero is over 62.5 µg/mL. In test [1], this compound registered a 50% effective concentration (EC50) of 3.21 µM, a 90% effect concentration (EC90) of 12.3 µM and a minimal inhibitory concentration (MIC) of 50 µM (≈ 24.9 µg/mL). In [2], the concentration for a half-maximal effect (EC50) was determined as 23.4 µM and the concentration for an effect of 90% (EC90) was over 100 µM.
As to `CN1C[C@H](c2ccc(OC(F)(F)F)cc2)[C@]2(Cc3ccccc3C2=O)[C@]12C(=O)c1cccc3cccc2c13`, in the test on Vero, the 50% inhibitory concentration (IC50) was over 62.5 µg/mL. In test [1], this compound displayed an EC50 of 8.51 µM, an EC90 of 26.1 µM and a minimum inhibitory concentration (MIC) of 50 µM (≈ 25.7 µg/mL). In [2], the 50% effective concentration (EC50) was determined as 36.6 µM and the EC90 was over 100 µM.
As for `CN1C[C@H](c2cncc(-c3ccc(F)cc3)c2)[C@]2(Cc3ccccc3C2=O)[C@]12C(=O)c1cccc3cccc2c13`, in the test on Vero, the IC50 is over 62.5 µg/mL. Further, the concentration for a half-maximal effect (EC50) was 64.5 µM in test [1] and over 100 µM in [2]. The 90% effect concentration (EC90) in test [1] and in test [2] was over 100 µM in each case.
With `CN1C[C@H](c2ccc(C(=O)O)cc2)[C@]2(Cc3ccccc3C2=O)[C@]12C(=O)c1cccc3cccc2c13`, the half-maximal inhibitory concentration (IC50) in the test with Vero was over 62.5 µg/mL. Besides, in test [1], a half-maximal effect (EC50) was put at 20.7 µM, the EC90 is over 100 µM and inhibition of growth (MIC) required 100 µM (≈ 47.4 µg/mL). In [2], this compound returned an EC50 of 69.2 µM, an EC90 of 99.7 µM and an MIC of 100 µM (≈ 47.4 µg/mL).
Regarding `CN1C[C@H](c2cccc([N+](=O)[O-])c2)[C@]2(Cc3ccccc3C2=O)[C@]12C(=O)c1cccc3cccc2c13`, the IC50 in the test on Vero is over 62.5 µg/mL. In [1], this compound had an EC50 of 10.1 µM and an EC90 of over 100 µM. Also, in test [2], the EC50 was 77.5 µM and the EC90 is over 100 µM.
`COc1ccc([C@H]2CN(C)[C@@]3(C(=O)c4cccc5cccc3c45)[C@@]23Cc2ccccc2C3=O)cc1` registered an IC50 in the test on Vero of over 62.5 µg/mL. Moreover, in test [1], the EC50 was 13.4 µM, the EC90 is 62.4 µM and the lowest concentration to inhibit growth (MIC) was 100 µM (≈ 46 µg/mL). In test [2], this compound displayed a concentration giving a half-maximal response (EC50) of 40.9 µM and an EC90 of over 100 µM.
On to `CN1C[C@H](c2cccc3c2OCO3)[C@]2(Cc3ccccc3C2=O)[C@]12C(=O)c1cccc3cccc2c13`, for which, in the test with Vero, the IC50 is over 62.5 µg/mL. In test [1], the EC50 was found to be 11.5 µM, the 90% effect concentration (EC90) was over 100 µM and the minimum inhibitory concentration (MIC) turned out to be 100 µM (≈ 47.4 µg/mL). In test [2], the midpoint of the response, the EC50, lay at 63.8 µM and the EC90 was over 100 µM.
Take `CN(C)c1ccc([C@H]2CN(C)[C@@]3(C(=O)c4cccc5cccc3c45)[C@@]23Cc2ccccc2C3=O)cc1`: the IC50 in the test on Vero was over 62.5 µg/mL. In test [1], this compound came in with a concentration for a half-maximal effect (EC50) of 9.87 µM, an EC90 of 55.3 µM and a minimum inhibitory concentration (MIC) of 100 µM (≈ 47.3 µg/mL). In test [2], this compound came in with an EC50 of 56 µM and an EC90 of over 100 µM.
Turning to `CN1C[C@H](c2ccc(N3CCOCC3)cc2)[C@]2(Cc3ccccc3C2=O)[C@]12C(=O)c1cccc3cccc2c13`, the IC50 in the test on Vero is over 62.5 µg/mL. In [1], the midpoint of the response, the EC50, lay at 18.9 µM and the EC90 is over 100 µM. In [2], this compound displayed a concentration for a half-maximal effect (EC50) of over 100 µM and an EC90 of over 100 µM.
As to `COc1ccc(OC)c([C@H]2CN(C)[C@@]3(C(=O)c4cccc5cccc3c45)[C@@]23Cc2ccccc2C3=O)c1`, the half-inhibitory concentration (IC50) in the test with Vero was over 62.5 µg/mL. In [1], this compound had an EC50 of 9.56 µM and a concentration for an effect of 90% (EC90) of over 100 µM. In test [2], it took 68 µM to reach a half-maximal effect (EC50) and the EC90 was over 100 µM.
In turn, `CN1C[C@H](c2ccc(N3CCCCC3)cc2)[C@]2(Cc3ccccc3C2=O)[C@]12C(=O)c1cccc3cccc2c13` returned an IC50 in the test with Vero of over 62.5 µg/mL. Moreover, in test [1], the 50% effective concentration (EC50) is 17.8 µM and the 90% effect concentration (EC90) is over 100 µM. Besides, in test [2], the EC50 is over 100 µM and the EC90 is over 100 µM.
With `CN1C[C@H](c2ccccc2)[C@]2(Cc3ccccc3C2=O)[C@]12C(=O)c1cccc3cccc2c13`, in the test with Vero, the half-maximal inhibitory concentration (IC50) was over 62.5 µg/mL. The 50% effective concentration (EC50) in test [1] and in test [2] was over 100 µM throughout. Further, the 90% effect concentration (EC90) in test [1] and in [2] was over 100 µM in each case.
Turning to `CN1C[C@H](c2ccc(Cl)cc2)[C@]2(Cc3ccccc3C2=O)[C@]12C(=O)c1cccc3cccc2c13`, in the test with Vero, the IC50 was over 62.5 µg/mL. In test [1], this compound had an EC50 of 6.27 µM, a concentration for an effect of 90% (EC90) of 29.6 µM and a minimal inhibitory concentration (MIC) of 50 µM (≈ 23.2 µg/mL). In test [2], this compound displayed a 50% effective concentration (EC50) of 68.5 µM and an EC90 of over 100 µM.
On to `CN1C[C@H](c2ccc(Br)cc2)[C@]2(Cc3ccccc3C2=O)[C@]12C(=O)c1cccc3cccc2c13`, for which the IC50 with Vero was over 62.5 µg/mL. Moreover, the Ratio in [3] is given as over 8; in test [4] it was 4.3; in test [6] it was over 8; in [7] it was 2.45. The figures for the “Ratio EC50” value in test [5] and in test [8] were 11 and 10.7, respectively. Also, the 50% effective concentration (EC50) in test [1] was 2.2 µM; in [2], 15.1 µM. In addition, the EC90 in [1] is 10.8 µM; in test [2] it was over 100 µM. The same compound yielded an MIC in test [1] of 12.5 µM (≈ 6.36 µg/mL).
The compound `NCC[C@H](O)C(=O)N[C@@H]1C[C@H](N)[C@@H](O[C@H]2O[C@H](CN)[C@@H](O)[C@H](O)[C@H]2O)[C@H](O)[C@H]1O[C@H]1O[C@H](CO)[C@@H](O)[C@H](N)[C@H]1O` [AMIKACIN] showed a 50% inhibitory concentration (IC50) with Vero of over 62.5 µg/mL. In test [1], this compound gave an EC50 of 0.07 µM, a 90% effect concentration (EC90) of 0.12 µM and an MIC of 0.16 µM (≈ 0.0937 µg/mL). In test [2], the response was half-maximal at 0.12 µM (EC50), the EC90 came to 0.14 µM and the MIC was 0.16 µM (≈ 0.0937 µg/mL).
With `N[C@@H]1CONC1=O` [CYCLOSERINE], the IC50 with Vero is over 62.5 µg/mL. In [1], this compound had a half-maximal effective concentration (EC50) of 23.6 µM, a 90% effect concentration (EC90) of 26.4 µM and a minimum inhibitory concentration (MIC) of 100 µM (≈ 10.2 µg/mL). In test [2], this compound gave a concentration giving a half-maximal response (EC50) of 24.8 µM, a concentration for an effect of 90% (EC90) of 28 µM and a minimal inhibitory concentration (MIC) of 100 µM (≈ 10.2 µg/mL).
In the test with Vero, `CC[C@@H](CO)NCCN[C@@H](CC)CO` [ETHAMBUTOL] gave an IC50 of over 62.5 µg/mL. In [1], this compound had an EC50 of 1.5 µM, an EC90 of 1.64 µM and an MIC of 6.25 µM (≈ 1.28 µg/mL). In test [2], this compound displayed an EC50 of 3.45 µM and an EC90 of over 200 µM.
`NNC(=O)c1ccncc1` [ISONIAZID] registered an IC50 in the test on Vero of over 62.5 µg/mL. Further, in test [1], the response was half-maximal at 0.13 µM (EC50), the 90% effect concentration (EC90) is 0.2 µM and the minimum inhibitory concentration (MIC) came to 0.31 µM (≈ 0.0425 µg/mL). Moreover, in test [2], the EC50 stood at 0.19 µM and the 90% effect concentration (EC90) is over 5 µM.
On to `CCc1nc(N)nc(N)c1-c1ccc(Cl)cc1` [PYRIMETHAMINE], for which, in the test on Vero, the half-maximal inhibitory concentration (IC50) was over 62.5 µg/mL. In test [1], the response was half-maximal at 24.3 µM (EC50), it took 46.4 µM to reach the 90% level (EC90) and the minimal inhibitory concentration (MIC) was found to be 100 µM (≈ 24.9 µg/mL). Moreover, in [2], the midpoint of the response, the EC50, lay at 25.1 µM; it took 28 µM to reach the 90% level (EC90); the MIC came out at 100 µM (≈ 24.9 µg/mL).
As to `CO[C@H]1/C=C/O[C@@]2(C)Oc3c(C)c(O)c4c(O)c(c(/C=N/N5CCN(C)CC5)c(O)c4c3C2=O)NC(=O)/C(C)=C\C=C\[C@H](C)[C@H](O)[C@@H](C)[C@@H](O)[C@@H](C)[C@H](OC(C)=O)[C@@H]1C` [RIFAMPIN], in the test with Vero, the IC50 was over 62.5 µg/mL. In test [1], it took 0.02 µM to reach a half-maximal effect (EC50), the EC90 is 0.03 µM and the minimal inhibitory concentration (MIC) worked out at 0.04 µM (≈ 0.0329 µg/mL). In test [2], this compound had an EC50 of 0.02 µM, an EC90 of 0.02 µM and an MIC of 0.16 µM (≈ 0.132 µg/mL).

The record behind these values is ChEMBL document CHEMBL2331118, “A facile three-component [3+2]-cycloaddition for the regioselective synthesis of highly functionalised dispiropyrrolidines acting as antimycobacterial agents” (Bioorg Med Chem Lett, 2013).
